From PubChem BioAssay (NCI)
“And” between values parts separate entries of the source, which are not always exact repeats. Equal values may be shown once.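 48-hour exposure; five concentrations; linearly interpolated endpoints. GI50 marks 50% less growth. Definition used: TGI = concentration required for complete inhibition of growth.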

Columns and labels:
Experiment in all cases: DTP human tumour cell line panel, 48 h
[1] = test system: CAKI-1 renal
[2] = test system: ACHN renal
[3] = test system: EKVX NSCLC
[4] = test system: UACC-62 melanoma
[5] = test system: SNB-75 CNS
[6] = test system: RXF 393 renal
[7] = test system: SN12C renal
[8] = test system: SK-MEL-28 melanoma
[9] = test system: HOP-92 NSCLC
[10] = test system: SK-MEL-5 melanoma
[11] = test system: M14 melanoma

| Structure (SMILES) | TGI [1] | TGI [2] | TGI [3] | TGI [4] | TGI [5] | TGI [6] | TGI [7] | TGI [8] | TGI [9] | TGI [10] | TGI [11] | GI50 [3] | GI50 [4] | GI50 [5] | GI50 [9] | GI50 [10] | GI50 [11] |
| --- | --- | --- | --- | --- | --- | --- | --- | --- | --- | --- | --- | --- | --- | --- | --- | --- | --- |
| CC(C)=CCC[C@@H](C)C1=C(O)C(Nc2ccccc2Cl)=C(C)C(=O)C1=O | > 55 µM | > 46.6 µM | > 75 µM | 36 µM | > 52.3 µM | > 50.8 µM | > 75 µM | > 75 µM | > 67.8 µM | 42.9 µM | > 59.9 µM |  |  |  |  |  |  |
| COc1c(C(=O)NCCN(CCNC(=O)c2cccc(-c3cccc(C(=O)N(C)C)c3OC)c2OC)CCNC(=O)c2cccc(-c3cccc(C(=O)N(C)C)c3OC)c2OC)cccc1-c1cccc(C(=O)N(C)C)c1OC | > 100 µM | > 100 µM | > 100 µM | 67.2 µM | 83.8 µM | 63 µM | > 100 µM | 41.5 µM | 46.2 µM | 68.7 µM | > 100 µM |  |  |  |  |  |  |
| CCOP(=O)(OCC)C(NC(=O)C(C(F)(F)F)C(F)(F)F)c1ccccc1 (stereo not given) | > 100 µM | > 100 µM | > 100 µM | > 100 µM | > 100 µM | > 100 µM | > 100 µM | > 100 µM | > 100 µM | > 100 µM | > 100 µM |  |  |  |  |  |  |
| Nc1nc(NCCCO)cc(=O)[nH]1 | > 100 µM | > 100 µM | > 100 µM | > 100 µM | > 100 µM | > 100 µM | > 100 µM | > 100 µM | > 100 µM | > 100 µM | > 100 µM |  |  |  |  |  |  |
| [B-][P+](CC[P+]1([B-])[C@@H](C)[C@@H](O)[C@H](O)[C@@H]1C)(c1ccccc1)c1ccccc1OC (stereo not given in full) | 30.4 µM | 31.6 µM | 25 µM | 28.1 µM | 28.3 µM | 31.2 µM | 26.2 µM | 32.7 µM | 33 µM | 29.3 µM | 34 µM |  |  |  |  |  |  |
| CN(C)N1C(=O)S/C(=C\c2ccc([N+](=O)[O-])cc2)C1=O | > 100 µM | > 100 µM | > 100 µM | > 100 µM | 98.7 µM | > 100 µM | > 100 µM | > 100 µM | > 100 µM | > 100 µM | > 100 µM |  |  |  |  |  |  |
| COc1ccc2c(c1)CCCN1CCc3ccccc3C21 (stereo not given) | > 100 µM | > 100 µM | > 100 µM | 83.1 µM | 66.1 µM | 73 µM | 77.7 µM | > 100 µM | > 100 µM | > 100 µM | 51.5 µM |  |  |  |  |  |  |
| CC1=CC[C@@]2(C)CC[C@](O)(C(C)C)C2C(OC(=O)c2ccccc2)C1 (stereo not given in full) | 44.9 µM | 32.1 µM | 32.3 µM |  | 35.8 µM | 27.3 µM | 44.9 µM | 58.4 µM | 29.7 µM | 34.9 µM | 37.8 µM |  |  |  |  |  |  |
| COc1cccc(C2c3cc4c(cc3OC(NNS(=O)(=O)c3ccc(C)cc3)C2C)OCO4)c1OC (stereo not given) | 8.56 µM | 9.85 µM | > 100 µM | 33.2 µM | 60.5 µM | 21.6 µM | 35.3 µM | > 100 µM | 7.18 µM | 19 µM | > 100 µM |  |  |  |  |  |  |
| COc1cccc(/C=C2\S/C(=N/Nc3nc(C)c(C)s3)NC2=O)c1O | > 100 µM | > 100 µM | > 100 µM | > 100 µM | > 100 µM | > 100 µM | > 100 µM | > 100 µM | > 100 µM | > 100 µM | > 100 µM |  |  |  |  |  |  |
| CC(C)(Cl)C(Br)CCC(Br)(CCl)C(Cl)CBr (stereo not given) | > 10 µM | > 10 µM | > 10 µM |  | > 10 µM | > 10 µM | > 10 µM | > 10 µM | > 10 µM | > 10 µM | > 10 µM |  |  |  |  |  |  |
| CC(=O)NCC1OC2COC(c3ccccc3)OC2C(NC(=O)c2ccccc2)C1OC(=O)c1ccccc1 (stereo not given) | > 100 µM | > 100 µM | > 100 µM | > 100 µM | > 100 µM | > 100 µM | > 100 µM | > 100 µM | > 100 µM | > 100 µM | > 100 µM |  |  |  |  |  |  |
| CC(C)=CCCC(C)CCOS(=O)C(F)(F)F (stereo not given) | > 100 µM | 34.4 µM | 30.2 µM | 21.7 µM | 67.7 µM | 7.57 µM | 41.7 µM | 34.6 µM | > 100 µM | 33.1 µM | 6.59 µM |  |  |  |  |  |  |
| CC(=O)c1ccc2c(c1)CC1(C2)Cc2cc3c(c(C(=O)O)c2C1)CCC3 (stereo not given) | > 100 µM | > 100 µM | > 100 µM | > 100 µM | > 100 µM | > 100 µM | > 100 µM | > 100 µM | > 100 µM | > 100 µM |  |  |  |  |  |  |  |
| CCOC(=O)NC(Nc1ccc(F)cc1)(C(=O)OCC)C(F)(F)F (stereo not given) | > 100 µM | > 100 µM | > 100 µM | > 100 µM | > 100 µM | > 100 µM | > 100 µM | > 100 µM | > 100 µM | > 100 µM | > 100 µM |  |  |  |  |  |  |
| COc1ccc(COC(=O)NCC(=O)NC(C)C(=O)NC(Cc2ccccc2)C(=O)OCc2ccccc2)cc1 (stereo not given) | 41.5 µM and 65.7 µM | 44.5 µM and 36.7 µM | 56.6 µM and > 100 µM | 40.2 µM and > 100 µM | 60.9 µM and 89.2 µM | 82.2 µM | > 100 µM and 51.9 µM | 39.5 µM and 34.8 µM | 37.8 µM and > 100 µM | 26.8 µM and > 100 µM | 31.8 µM and > 100 µM | 23.4 µM and 48.7 µM | 18.8 µM and > 100 µM | 21.1 µM and 44.6 µM | 18.2 µM and 40.9 µM | 13.8 µM and 56.3 µM | 18 µM and 37.5 µM |
| O=C1Nc2nccnc2C(=O)N2CCC[C@@H]12 | > 100 µM | > 100 µM | > 100 µM | > 100 µM | > 100 µM | > 100 µM | > 100 µM | > 100 µM | > 100 µM | > 100 µM | > 100 µM |  |  |  |  |  |  |
| CN(C)c1c(C2OC(CO)C(O)C2O)c(=O)c1=O (stereo not given) | > 100 µM | > 100 µM | > 100 µM | > 100 µM | > 100 µM | > 100 µM | > 100 µM | > 100 µM | > 100 µM |  | > 100 µM |  |  |  |  |  |  |
